Results on 19 compounds are retold here after patent US10219516B2, “Molecules having pesticidal utility, and intermediates, compositions, and processes, related thereto” (priority 2015, dated 2019).

What all share (format): in vivo
Assay [1] concerns Beet Armyworm (Spodoptera exigua, LAPHEG). Description: Bioassay on Beet Armyworm (BAW), 128-well diet tray assay. The note with it: Beet Armyworm, 128-well diet tray assay, read-out: BAW rating. The method, boiled down:
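In a 128-well format, eight wells per compound received a surface dose of 50 μg/cm^2 on artificial diet. After drying, each well got one to five second instar larvae, held at 25° C. with 14:10 photoperiod. Mortality percentages after five to seven days were averaged.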

The test system of assay [2] is Cabbage Looper (Trichoplusia ni, TRIPNI). Description: Bioassay on Cabbage Looper (CL), 128-well diet tray assay. The note with it: Trichoplusia ni; Cabbage Looper, 128-well diet tray assay; read-out: CL rating. The method, boiled down:
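Mortality of second instar larvae exposed to diet coated with 50 μg/cm^2 compound (acetone-water 90:10 vehicle, dried); 25° C., 5–7 days.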

For assay [3], the system named is Yellow Fever Mosquito (Aedes aegypti, AEDSAE). Description: Bioassay on Yellow Fever Mosquito (YFM), 96-well plate larval assay. Particulars: Yellow Fever Mosquito, 96-well plate larval assay. The method, boiled down:
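Aedes aegypti larvae (about 1 day old) in liver-powder water were added to plates dispensed from DMSO master plates (4000 ppm stock) diluted with 90:10 water/acetone; six replicate plates per master. Lidded plates were held at room temperature for 3 days, then each well was scored for mortality.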

Regarding `C=C(F)c1ccc(NC(=O)c2cc(NC(=O)[C@H]3[C@H](c4cc(Cl)cc(Cl)c4)C3(Cl)Cl)ccc2Cl)nc1F` (relative stereo) [F398, 2-chloro-5-(trans-2,2-dichloro-3-(3,5-dichlorophenyl)cyclopropane-1-carboxamido)-N-(6-fluoro-5-(1-fluorovinyl)pyridin-2-yl)benzamide], the pest or weed control at 50 µg/cm2 in assay [1] and in assay [2] was 50 to 100% in each case. In assay [3], the YFM rating entry is “A (80-100)”.

For the compound `C=Cc1cc(NC(=O)c2cc(NC(=O)[C@H]3[C@H](c4cc(Cl)cc(Cl)c4)C3(Cl)Cl)ccc2Cl)cnc1F` (relative stereo) [F399, 2-Chloro-5-(trans-2,2-dichloro-3-(3,5-dichlorophenyl)cyclopropane-1-carboxamido)-N-(6-fluoro-5-vinylpyridin-3-yl)benzamide], the pest or weed control at 50 µg/cm2 in assay [1] and in assay [2] was 50 to 100% in each case. Moreover, the YFM rating result in assay [3] is reported as “A (80-100)”.

As for `C=C(F)c1cc(NC(=O)c2cc(NC(=O)[C@H]3[C@H](c4cc(Cl)cc(Cl)c4)C3(Cl)Cl)ccc2Cl)cnc1F` (relative stereo) [F400, 2-Chloro-5-(trans-2,2-dichloro-3-(3,5-dichlorophenyl)cyclopropane-1-carboxamido)-N-(6-fluoro-5-(1-fluorovinyl)pyridin-3-yl)benzamide], the pest or weed control at 50 µg/cm2 in assay [1] and in assay [2] was 50 to 100% throughout. In addition, the YFM rating result in assay [3] is on record as “A (80-100)”.

As to `C#Cc1ccc([C@H]2[C@H](C(=O)Nc3ccc(Cl)c(C(=O)Nc4ccc(F)cc4C#N)c3)C2(Cl)Cl)cc1Cl` (relative stereo) [F401, 2-chloro-N-(2-cyano-4-fluorophenyl)-5-(trans-2,2-dichloro-3-(3-chloro-4-ethynylphenyl)cyclopropane-1-carboxamido)benzamide], the pest or weed control at 50 µg/cm2 in assay [1] and in assay [2] was 50 to 100% throughout. For the same compound, the YFM rating entry in assay [3] is listed as “A (80-100)”.

Take `C#Cc1cc([C@H]2[C@H](C(=O)Nc3ccc(Cl)c(C(=O)Nc4ccc(F)cc4)c3)C2(Cl)Cl)ccc1Cl` (relative stereo) [F410, 2-Chloro-5-(trans-2,2-dichloro-3-(4-chloro-3-ethynylphenyl)cyclopropane-1-carboxamido)-N-(4-fluorophenyl)benzamide]: the pest or weed control at 50 µg/cm2 in assay [1] and in assay [2] was 50 to 100% each time. In addition, the YFM rating entry in assay [3] was “A (80-100)”.

For the compound `O=C(Nc1ccc(F)cc1F)c1cc(NC(=O)[C@H]2[C@H](c3cc(F)cc(F)c3)C2(Cl)Cl)ccc1Cl` (relative stereo) [F411, 2-Chloro-5-(trans)-(2,2-dichloro-3-(3,5-difluorophenyl)cyclopropane-1-carboxamido)-N-(2,4-difluorophenyl)benzamide], the pest or weed control at 50 µg/cm2 in assay [1] and in assay [2] was 50 to 100% each time. The YFM rating entry in assay [3] is “A (80-100)”.

Regarding `C#CCN(C(=O)c1cc(NC(=O)[C@H]2[C@H](c3cc(Cl)cc(Cl)c3)C2(Cl)Cl)ccc1Cl)c1ccc(F)cc1` (relative stereo) [F413, trans-2-Chloro-5-(2,2-dichloro-3-(3,5-dichlorophenyl)cyclopropane-1-carboxamido)-N-(4-fluorophenyl)-N-(prop-2-yn-1-yl)benzamide], the pest or weed control at 50 µg/cm2 in assay [1] and in assay [2] was 50 to 100% each time. In assay [3], the YFM rating entry is “A (80-100)”.

On to `O=C(Nc1ccc(F)cc1)c1cc(NC(=O)[C@H]2[C@H](c3ccc([N+](=O)[O-])cc3)C2(Cl)Cl)ccc1Cl` (relative stereo) [F422, 2-chloro-5-(trans-2,2-dichloro-3-(4-nitrophenyl)cyclopropane-1-carboxamido)-N-(4-fluorophenyl)benzamide], for which the pest or weed control at 50 µg/cm2 in assay [1] and in assay [2] was 50 to 100% each time. Also, in assay [3], the YFM rating entry is recorded as “A (80-100)”.

Consider `O=C(Nc1ccc(F)cc1F)c1cc(NC(=O)[C@H]2[C@H](c3cc(Br)cc(C(F)(F)F)c3)C2(Cl)Cl)ccc1Cl` (relative stereo) [F424, 5-(trans)-(3-(3-Bromo-5-(trifluoromethyl)phenyl)-2,2-dichlorocyclopropane-1-carboxamido)-2-chloro-N-(2,4-difluorophenyl)benzamide], for which the pest or weed control at 50 µg/cm2 in assay [1] and in assay [2] was 50 to 100% throughout. For the same compound, the YFM rating entry in assay [3] is recorded as “A (80-100)”.

In the case of `O=C(Nc1ccc(-n2cccn2)cc1)c1cc(NC(=O)[C@H]2[C@H](c3cc(Cl)cc(Cl)c3)C2(Cl)Cl)ccc1Cl` (relative stereo) [F440, trans-N-(4-(1H-Pyrazol-1-yl)phenyl)-2-chloro-5-(2,2-dichloro-3-(3,5-dichlorophenyl)cyclopropanecarboxamido)benzamide], the pest or weed control at 50 µg/cm2 in assay [1] and in assay [2] was 50 to 100% each time. In addition, the YFM rating result in assay [3] is on record as “A (80-100)”.

With `O=C(Nc1ccc2sccc2c1)c1cc(NC(=O)[C@H]2[C@H](c3cc(Cl)cc(Cl)c3)C2(Cl)Cl)ccc1Cl` (relative stereo) [F452, trans-N-(Benzo[b]thiophen-5-yl)-2-chloro-5-(2,2-dichloro-3-(3,5-dichlorophenyl)cyclopropane-1-carboxamido)benzamide], the pest or weed control at 50 µg/cm2 in assay [1] and in assay [2] was 50 to 100% in each case. Further, the YFM rating result in assay [3] is reported as “A (80-100)”.

With `CN1C(=O)Cc2cc(NC(=O)c3cc(NC(=O)[C@H]4[C@H](c5cc(Cl)cc(Cl)c5)C4(Cl)Cl)ccc3Cl)ccc21` (relative stereo) [F459, 2-Chloro-5-(trans)-(2,2-dichloro-3-(3,5-dichlorophenyl)cyclopropane-1-carboxamido)-N-(1-methyl-2-oxoindolin-5-yl)benzamide], the pest or weed control at 50 µg/cm2 in assay [1] and in assay [2] was 50 to 100% each time. For the same compound, the YFM rating entry in assay [3] is “A (80-100)”.

On to `Cn1nc(NC(=O)c2cc(NC(=O)[C@H]3[C@H](c4cc(Cl)cc(Cl)c4)C3(Cl)Cl)ccc2Cl)c2cc(C(F)(F)F)ccc21` (relative stereo) [F460, 2-Chloro-5-(trans)-(2,2-dichloro-3-(3,5-dichlorophenyl)cyclopropane-1-carboxamido)-N-(1-methyl-5-(trifluoromethyl)-1H-indazol-3-yl)benzamide], for which the pest or weed control at 50 µg/cm2 in assay [1] and in assay [2] was 50 to 100% each time. The YFM rating entry in assay [3] is listed as “A (80-100)”.

Take `O=C(Nc1ccc(-c2nccs2)cc1)c1cc(NC(=O)[C@H]2[C@H](c3cc(Cl)cc(Cl)c3)C2(Cl)Cl)ccc1Cl` (relative stereo) [F461, trans-2-Chloro-5-(2,2-dichloro-3-(3,5-dichlorophenyl)cyclopropane-1-carboxamido)-N-(4-(thiazol-2-yl)phenyl)benzamide]: the pest or weed control at 50 µg/cm2 in assay [1] and in assay [2] was 50 to 100% throughout. In addition, in assay [3], the YFM rating entry was “A (80-100)”.

For `O=C(Nc1cc(F)c2[nH]ccc2c1)c1cc(NC(=O)[C@H]2[C@H](c3cc(Cl)cc(Cl)c3)C2(Cl)Cl)ccc1Cl` (relative stereo) [F462, 2-Chloro-5-(trans)-(2,2-dichloro-3-(3,5-dichlorophenyl)cyclopropane-1-carboxamido)-N-(7-fluoro-1H-indol-5-yl)benzamide], the pest or weed control at 50 µg/cm2 in assay [1] and in assay [2] was 50 to 100% each time. Besides, the YFM rating result in assay [3] is “A (80-100)”.

Consider `Cn1nc(NC(=O)c2cc(NC(=O)[C@H]3[C@H](c4cc(Cl)cc(Cl)c4)C3(Cl)Cl)ccc2Cl)c2c(Cl)cccc21` (relative stereo) [F463, 2-Chloro-N-(4-chloro-1-methyl-1H-indazol-3-yl)-5-(trans)-(2,2-dichloro-3-(3,5-dichlorophenyl)cyclopropane-1-carboxamido)benzamide], for which the pest or weed control at 50 µg/cm2 in assay [1] and in assay [2] was 50 to 100% each time. In assay [3], the YFM rating entry was “A (80-100)”.

Consider `Cn1ccc2cc(NC(=O)c3cc(NC(=O)[C@H]4[C@H](c5cc(Cl)cc(Cl)c5)C4(Cl)Cl)ccc3Cl)cnc21` (relative stereo) [F464, 2-Chloro-5-(trans)-(2,2-dichloro-3-(3,5-dichlorophenyl)cyclopropane-1-carboxamido)-N-(1-methyl-1H-pyrrolo[2,3-b]pyridin-5-yl)benzamide], for which the pest or weed control at 50 µg/cm2 in assay [1] and in assay [2] was 50 to 100% throughout. Further, in assay [3], the YFM rating result is “A (80-100)”.

With `CC(=O)N(C(C)=O)c1ccc(NC(=O)c2cc(NC(=O)[C@H]3[C@H](c4cc(Cl)cc(Cl)c4)C3(Cl)Cl)ccc2Cl)c(C#N)c1` (relative stereo) [F469, trans-N-(4-(N-acetylacetamido)-2-cyanophenyl)-2-chloro-5-(2,2-dichloro-3-(3,5-dichlorophenyl)cyclopropane-1-carboxamido)benzamide], the pest or weed control at 50 µg/cm2 in assay [1] and in assay [2] was 50 to 100% in each case. The YFM rating result in assay [3] is recorded as “A (80-100)”.

As for `O=C1Cc2cc(NC(=O)c3cc(NC(=O)[C@H]4[C@H](c5cc(Cl)cc(Cl)c5)C4(Cl)Cl)ccc3Cl)ccc2N1` (relative stereo) [F472, 2-Chloro-5-(trans)-(2,2-dichloro-3-(3,5-dichlorophenyl)cyclopropane-1-carboxamido)-N-(2-oxoindolin-5-yl)benzamide], the pest or weed control at 50 µg/cm2 in assay [1] and in assay [2] was 50 to 100% each time. Besides, the YFM rating result in assay [3] is reported as “A (80-100)”.
